# Data reported in patent publication US8129345B2, “MUC1-IκB kinase complexes and their activities” (Dana-Farber Cancer Institute, Inc., priority 2006, dated 2012).
# Experiments:
# [1] = system: MCF-7 cells; test: TNFα treatment of MCF-7 cells, MUC1-C binding to IKKs; assay type: cell-based, Human
# Description: (§1) Cell culture. Human HCT116 colon carcinoma cells, HeLa cervical carcinoma cells and MCF-7 breast cancer cells were grown in Dulbecco's modified Eagle's medium with 10% heat-inactivated fetal bovine serum, 100 units/ml penicillin, […] streptomycin and 2 mM L-glutamine. Human ZR-75-1 breast cancer cells were grown in RPMI1640 medium containing 10% heat-inactivated fetal bovine serum, antibiotics and L-glutamine. Human MCF-10A breast epithelial cells were grown in mammary epithelial cell growth media (MEGM; Cambrex Corp.).
# (§2) Immunoprecipitation and immunoblotting. Lysates from subconfluent cells were prepared as described in Ren et al. (2004) Cancer Cell 5:163-175. Soluble proteins were incubated with anti-IKKβ (Cell Signaling Technology) or anti-IKKγ (Santa Cruz Biotechnology) for 2 h at 4° C. […] The immune complexes were detected with horseradish peroxidase-conjugated secondary (anti-IgG) antibodies (Amersham Biosciences) and enhanced chemiluminescence (ECL; Amersham Biosciences). […]
# [2] = system: MCF-10A cells; test: TNFα stimulation of MCF-10A cells, immunoprecipitation and immunoblotting of fractions; assay type: cell-based, Human; settings: 20 ng/ml TNFα
# Description: FIG. 10B is a pair of photographs of immunoblots. Lysates from MCF-10A cells left untreated (0) or stimulated with 20 ng/ml TNFα for the indicated times (0.5, or 2 hours) were immunoprecipitated with anti-IKKβ (left) or anti-IKKγ (right). The immunoprecipitates were immunoblotted with antibodies specific to MUC1-C, and either IKKβ (left panel) or IKKγ (right panel) as loading controls. The molecular weights of proteins (as indicated on the left of the photographs) are expressed as kilodaltons (kDa).
# FIG. 10C is a series of photographs of immunoblots. MCF-10A cells were left untreated (0) or stimulated with 20 ng/ml TNFα for the indicated times. Cytosolic and nuclear fractions of the cells were prepared and subjected to immunoblotting with the indicated antibodies. The molecular weights of proteins (as indicated on the left of the photographs) are expressed as kilodaltons (kDa).
# as §1
# Subcellular fractionation. Nuclear and cytosolic fractions were prepared as described in Kharbanda et al. (1996) Cancer Res. 56:3617-3621.
# as §2
substance,measurement,setting,value
TNFα,binding of MUC1-C to IKKβ or IKKγ,[1],no apparent effect
same,phosphorylation and degradation of IκBα,[2]; MCF-10A cytosolic fractions,associated with phosphorylation and degradation of IκBα
same,targeting of NF-κB p65 to the nucleus,[2]; MCF-10A nuclear fractions,targeting of NF-κB p65 to the nucleus
same,binding of MUC1-C to IKKβ and IKKγ,[2]; MCF-10A,increased binding
